Test results: PubChem BioAssay (NCI)
Values joined by “and” are separate entries in the source; they are usually repeats but may differ in a detail not shown here. Equal values may be shown once.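 Assay format: 96-well plates, 48-hour exposure. Here, GI50 denotes the concentration required for 50% inhibition of growth. At the TGI there is no net growth.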

Tests used:
Assay in all cases: NCI tumour cell line growth inhibition, 48 h
[1] = system: HCT-15 colon
[2] = system: SNB-78 CNS
[3] = system: UACC-257 melanoma
[4] = system: SF-295 CNS
[5] = system: RPMI-8226 leukemia
[6] = system: A498 renal
[7] = system: NCI-H522 lung
[8] = system: DMS 273 small cell lung
[9] = system: CCRF-CEM leukemia
[10] = system: RXF-631 renal
[11] = system: A549 NSCLC
[12] = system: DMS 114 small cell lung
[13] = system: HCC-2998 colon
[14] = system: SF-539 CNS
[15] = system: ACHN renal
[16] = system: K-562 leukemia
[17] = system: NCI-H460 lung
[18] = system: HOP-92 NSCLC
[19] = system: SK-MEL-5 melanoma
[20] = system: SN12C renal
[21] = system: HT29 colon
[22] = system: SF-268 CNS
[23] = system: UACC-62 melanoma
[24] = system: MOLT-4 leukemia
[25] = system: LXFL 529 NSCLC
[26] = system: M14 melanoma
[27] = system: SW-620 colon
[28] = system: 786-0 renal
[29] = system: OVCAR-4 ovarian
[30] = system: OVCAR-5 ovarian
[31] = system: UO-31 renal
[32] = system: RXF 393 renal
[33] = system: KM12 colon
[34] = system: HOP-18 NSCLC
[35] = system: HOP-62 NSCLC
[36] = system: TK-10 renal
[37] = system: M19-MEL melanoma
[38] = system: OVCAR-3 ovarian
[39] = system: SNB-19 CNS
[40] = system: U251 CNS
[41] = system: HCT-116 colon
[42] = system: KM20L2 colon
[43] = system: HL-60(TB) leukemia
[44] = system: MALME-3M melanoma
[45] = system: DLD-1 colon
[46] = system: NCI-H23 lung
[47] = system: OVCAR-8 ovarian
[48] = system: COLO 205 colon
[49] = system: EKVX NSCLC
[50] = system: SNB-75 CNS
[51] = system: SK-OV-3 ovarian
[52] = system: NCI-H226 lung
[53] = system: IGROV1 ovarian
[54] = system: SK-MEL-28 melanoma
[55] = system: SR leukemia
[56] = system: SK-MEL-2 melanoma
[57] = system: CAKI-1 renal
[58] = system: LOX IMVI melanoma

## Cc1cc(Cl)ccc1NC(=O)C1C(=O)N(c2ccc(Cl)cc2C)C(=O)/C1=N\NC(N)=S (stereo not drawn)
[1]
  TGI: 34.4 µM
[2]
  TGI: > 100 µM
[3]
  TGI: > 100 µM
[4]
  TGI: 86.4 µM
[5]
  TGI: > 100 µM
[6]
  TGI: 72.4 µM
[7]
  TGI: 34.4 µM
[8]
  TGI: > 100 µM
[9]
  TGI: 56.5 µM
[10]
  TGI: > 100 µM
[11]
  TGI: > 100 µM
[12]
  TGI: 98.7 µM
[13]
  TGI: 44.5 µM
[14]
  TGI: 70.6 µM
[15]
  TGI: > 100 µM
[16]
  TGI: 57.8 µM
[17]
  TGI: > 100 µM
[18]
  TGI: 46.6 µM
[19]
  TGI: > 100 µM
[20]
  TGI: 96.3 µM
[21]
  TGI: 35.4 µM
[22]
  TGI: > 100 µM
[23]
  TGI: 86.4 µM
[24]
  TGI: 38 µM
[25]
  TGI: 98.5 µM
[26]
  TGI: > 100 µM
[27]
  TGI: > 100 µM
[28]
  TGI: > 100 µM
[29]
  TGI: 69.7 µM
[30]
  TGI: 53.9 µM
[31]
  TGI: 41.1 µM
[32]
  TGI: 54.1 µM
[33]
  TGI: > 100 µM
[34]
  TGI: 60.8 µM
[35]
  TGI: 48.5 µM
[36]
  TGI: > 100 µM
[37]
  TGI: > 100 µM
[38]
  TGI: > 100 µM
[39]
  TGI: > 100 µM
[40]
  TGI: 39.6 µM
[41]
  TGI: 46.2 µM
[42]
  TGI: 46.8 µM
[43]
  TGI: 51.8 µM
[44]
  TGI: 49.7 µM
[45]
  TGI: > 100 µM
[46]
  TGI: 41.6 µM
[47]
  TGI: > 100 µM
[48]
  TGI: > 100 µM
[49]
  TGI: 51.8 µM

## COc1ccc(CCn2cncn2)cc1
[1]
  TGI: > 100 µM
[2]
  TGI: > 100 µM
[3]
  TGI: > 100 µM
[4]
  TGI: > 100 µM
[50]
  TGI: > 100 µM
[7]
  TGI: > 100 µM
[8]
  TGI: > 100 µM
[9]
  TGI: > 100 µM
[10]
  TGI: > 100 µM
[51]
  TGI: > 100 µM
[52]
  TGI: > 100 µM
[11]
  TGI: > 100 µM
[12]
  TGI: > 100 µM
[13]
  TGI: > 100 µM
[14]
  TGI: > 100 µM
[15]
  TGI: > 100 µM
[16]
  TGI: > 100 µM
[53]
  TGI: > 100 µM
[17]
  TGI: > 100 µM
[18]
  TGI: > 100 µM
[19]
  TGI: > 100 µM
[20]
  TGI: > 100 µM
[21]
  TGI: > 100 µM
[22]
  TGI: > 100 µM
[23]
  TGI: > 100 µM
[24]
  TGI: > 100 µM
[54]
  TGI: > 100 µM
[25]
  TGI: > 100 µM
[26]
  TGI: > 100 µM
[27]
  TGI: > 100 µM
[29]
  TGI: > 100 µM
[30]
  TGI: > 100 µM
[31]
  TGI: > 100 µM
[33]
  TGI: > 100 µM
[35]
  TGI: > 100 µM
[36]
  TGI: > 100 µM
[37]
  TGI: > 100 µM
[38]
  TGI: > 100 µM
[55]
  TGI: > 100 µM
[39]
  TGI: > 100 µM
[40]
  TGI: > 100 µM
[41]
  TGI: > 100 µM
[42]
  TGI: > 100 µM
[43]
  TGI: > 100 µM
[45]
  TGI: > 100 µM
[46]
  TGI: > 100 µM
[48]
  TGI: > 100 µM
[49]
  TGI: > 100 µM

## COc1ccc(/C=C\c2cc(OC)c(OC)c(OC)c2)cc1
[56]
  TGI: > 100 µM
[4]
  TGI: 0.000719 µM
[50]
  TGI: 0.000932 µM
[5]
  TGI: > 100 µM
[6]
  TGI: 13.2 µM
[7]
  TGI: 0.00151 µM
[8]
  TGI: > 100 µM
[9]
  TGI: > 100 µM
[10]
  TGI: > 100 µM
[51]
  GI50: 99.3 µM
  TGI: > 100 µM
[52]
  TGI: 0.222 µM and 0.0693 µM
[11]
  TGI: > 100 µM
[12]
  TGI: > 100 µM
[14]
  TGI: 0.00384 µM
[15]
  TGI: > 100 µM
[16]
  TGI: > 100 µM
[53]
  TGI: > 100 µM
[17]
  TGI: 15.6 µM
[19]
  TGI: 14.5 µM
[20]
  TGI: > 100 µM
[21]
  TGI: 13.6 µM
[22]
  GI50: 0.0443 µM
  TGI: > 100 µM
[23]
  TGI: > 100 µM
[24]
  TGI: 3.09 µM
[25]
  TGI: > 100 µM
[26]
  TGI: > 100 µM
[28]
  TGI: > 100 µM
[30]
  TGI: 90.8 µM
[31]
  TGI: 8.66 µM
[57]
  TGI: 43.4 µM
[33]
  TGI: > 100 µM
[35]
  TGI: > 100 µM
[37]
  TGI: > 100 µM
[38]
  TGI: 0.000152 µM
[55]
  TGI: 78.7 µM
[40]
  TGI: 1.25 µM
[41]
  TGI: > 100 µM
[44]
  TGI: > 100 µM
[45]
  TGI: > 100 µM
[46]
  TGI: 0.0118 µM
[47]
  TGI: > 100 µM
[48]
  TGI: 11.5 µM

## O=C1CCC(=O)N1Sc1ccccc1
[1]
  TGI: > 100 µM
[2]
  TGI: > 100 µM
[56]
  TGI: > 100 µM
[3]
  TGI: > 100 µM
[4]
  TGI: > 100 µM
[50]
  TGI: > 100 µM
[5]
  TGI: > 100 µM
[6]
  TGI: > 100 µM
[7]
  TGI: > 100 µM
[8]
  TGI: > 100 µM
[9]
  TGI: > 100 µM
[10]
  TGI: > 100 µM
[51]
  TGI: > 100 µM
[11]
  TGI: > 100 µM
[12]
  TGI: > 100 µM
[14]
  TGI: > 100 µM
[15]
  TGI: > 100 µM
[16]
  TGI: > 100 µM
[53]
  TGI: > 100 µM
[17]
  TGI: > 100 µM
[18]
  TGI: > 100 µM
[19]
  TGI: > 100 µM
[20]
  TGI: > 100 µM
[22]
  TGI: > 100 µM
[23]
  TGI: > 100 µM
[24]
  TGI: > 100 µM
[54]
  TGI: > 100 µM
[26]
  TGI: > 100 µM
[27]
  TGI: > 100 µM
[28]
  TGI: > 100 µM
[29]
  TGI: > 100 µM
[31]
  TGI: > 100 µM
[57]
  TGI: > 100 µM
[32]
  TGI: > 100 µM
[33]
  TGI: > 100 µM
[35]
  TGI: > 100 µM
[36]
  TGI: > 100 µM
[58]
  TGI: > 100 µM
[37]
  TGI: > 100 µM
[38]
  TGI: > 100 µM
[39]
  TGI: > 100 µM
[40]
  TGI: > 100 µM
[41]
  TGI: > 100 µM
[42]
  TGI: > 100 µM
[43]
  TGI: > 100 µM
[45]
  TGI: > 100 µM
[46]
  TGI: > 100 µM
[47]
  TGI: > 100 µM
[48]
  TGI: > 100 µM
[49]
  TGI: > 100 µM

## O=C1OC(=O)C([Se]c2ccccc2)=C1[Se]c1ccccc1
[1]
  TGI: > 100 µM
[2]
  TGI: > 100 µM
[3]
  TGI: > 100 µM
[4]
  TGI: > 100 µM
[50]
  TGI: > 100 µM
[5]
  TGI: > 100 µM
[6]
  TGI: > 100 µM
[7]
  TGI: > 100 µM
[9]
  TGI: > 100 µM
[10]
  TGI: > 100 µM
[51]
  TGI: > 100 µM
[52]
  TGI: > 100 µM
[11]
  TGI: > 100 µM
[12]
  TGI: > 100 µM
[14]
  TGI: > 100 µM
[15]
  TGI: > 100 µM
[16]
  TGI: > 100 µM
[53]
  TGI: > 100 µM
[17]
  TGI: > 100 µM
[18]
  TGI: > 100 µM
[19]
  TGI: > 100 µM
[20]
  TGI: > 100 µM
[21]
  TGI: > 100 µM
[22]
  TGI: > 100 µM
[23]
  TGI: > 100 µM
[24]
  TGI: > 100 µM
[54]
  TGI: > 100 µM
[25]
  TGI: > 100 µM
[26]
  TGI: > 100 µM
[27]
  TGI: > 100 µM
[28]
  TGI: > 100 µM
[29]
  TGI: > 100 µM
[30]
  TGI: > 100 µM
[57]
  TGI: > 100 µM
[32]
  TGI: > 100 µM
[34]
  TGI: > 100 µM
[35]
  TGI: > 100 µM
[36]
  TGI: > 100 µM
[58]
  TGI: > 100 µM
[38]
  TGI: > 100 µM
[55]
  TGI: > 100 µM
[39]
  TGI: > 100 µM
[40]
  TGI: > 100 µM
[41]
  TGI: > 100 µM
[42]
  TGI: > 100 µM
[43]
  TGI: > 100 µM
[44]
  TGI: > 100 µM
[45]
  TGI: > 100 µM
[46]
  TGI: > 100 µM
[47]
  TGI: > 100 µM
[48]
  TGI: > 100 µM
[49]
  TGI: > 100 µM
